In PubChem BioAssay AID256 (DTP/NCI, 2004):
Toxic doses and inconclusive results are not listed. The calls were made as follows: active = survival T/C of 150% or more; inactive = T/C below 125% in these data.

Test system: CD2F1 mice, L1210 leukemia ip, survival T/C
Assay: NCI In Vivo Anticancer Drug Screen. Data for tumor model L1210 Leukemia (intraperitoneal) in CD2F1 (CDF1) mice
Settings: higher = longer survival
Outline: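 Activity against a transplanted murine tumor was judged by comparing the compound group with a vehicle group. The outcome in the treated animals was divided by that in the controls.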

[1] = endpoint: mean survival time, dose: 100.0 mg/kg/injection, schedule: Q01DX009 (ip), vehicle: saline with Tween-80
[2] = endpoint: mean survival time, dose: 200.0 mg/kg/injection, schedule: Q01DX009 (ip), vehicle: saline with Tween-80
[3] = endpoint: mean survival time, dose: 400.0 mg/kg/injection, schedule: Q01DX009 (ip), vehicle: saline with Tween-80
[4] = endpoint: mean survival time, dose: 25.0 mg/kg/injection, schedule: Q01DX009 (ip), vehicle: saline with Tween-80
[5] = endpoint: mean survival time, dose: 50.0 mg/kg/injection, schedule: Q01DX009 (ip), vehicle: saline with Tween-80
[6] = endpoint: mean survival time, dose: 100.0 mg/kg/injection, schedule: Q04DX003 (ip), vehicle: saline with Tween-80
[7] = endpoint: mean survival time, dose: 200.0 mg/kg/injection, schedule: Q04DX003 (ip), vehicle: saline with Tween-80
[8] = endpoint: mean survival time, dose: 400.0 mg/kg/injection, schedule: Q04DX003 (ip), vehicle: saline with Tween-80
[9] = endpoint: mean survival time, dose: 100.0 mg/kg/injection, schedule: Q04DX002 (ip), vehicle: saline with Tween-80

Measured: T/C

NC(C(=O)O)C(O)c1cnc[nH]1 (stereo unspecified)
inactive: endpoint: mean survival time, dose: 12.5 mg/kg/injection, schedule: Q01DX009 (ip), vehicle: water 96 % of control | endpoint: mean survival time, dose: 25.0 mg/kg/injection, schedule: Q01DX009 (ip), vehicle: water 100 % of control | endpoint: mean survival time, dose: 50.0 mg/kg/injection, schedule: Q01DX009 (ip), vehicle: water 100 % of control | endpoint: mean survival time, dose: 100.0 mg/kg/injection, schedule: Q01DX009 (ip), vehicle: water 104 % of control | endpoint: mean survival time, dose: 200.0 mg/kg/injection, schedule: Q01DX009 (ip), vehicle: water 102 % of control

CN(CC(=O)O)C(=O)c1cc2ccccc2[nH]1
inactive: endpoint: mean survival time, dose: 37.5 mg/kg/injection, schedule: Q04DX002 (ip), vehicle: saline with Tween-80 101 % of control | endpoint: mean survival time, dose: 75.0 mg/kg/injection, schedule: Q04DX002 (ip), vehicle: saline with Tween-80 89 % of control | endpoint: mean survival time, dose: 150.0 mg/kg/injection, schedule: Q04DX002 (ip), vehicle: saline with Tween-80 93 % of control

COc1cc(C(C)=O)cc(OCc2ccccc2)c1OC
inactive: [1] 100 % of control | [2] 102 % of control | [3] 96 % of control

CN(C)C1c2ccccc2-c2ccc([N+](=O)[O-])cc21 (stereo unspecified)
inactive: endpoint: mean survival time, dose: 50.0 mg/kg/injection, schedule: Q01DX001 (ip), vehicle: carboxymethylcellulose (CMC) 107 % of control | endpoint: mean survival time, dose: 100.0 mg/kg/injection, schedule: Q01DX001 (ip), vehicle: carboxymethylcellulose (CMC) 101 % of control | endpoint: mean survival time, dose: 200.0 mg/kg/injection, schedule: Q01DX001 (ip), vehicle: carboxymethylcellulose (CMC) 101 % of control | endpoint: mean survival time, dose: 400.0 mg/kg/injection, schedule: Q01DX001 (ip), vehicle: carboxymethylcellulose (CMC) 101 % of control

NC(C(=O)O)C(N)C(=O)O (stereo unspecified)
inactive: [1] 94 % of control | [2] 96 % of control | [3] 96 % of control

COc1cc(C2c3cc4c(cc3C(O)C(CO)C2CO)OCO4)cc(OC)c1OC (stereo unspecified)
inactive: endpoint: mean survival time, dose: 12.5 mg/kg/injection, schedule: Q01DX009 (ip), vehicle: saline with Tween-80 97 % of control | [4] 97 % of control | [5] 102 % of control | [1] 106 % of control | endpoint: mean survival time, dose: 100.0 mg/kg/injection, schedule: Q04DX003 (ip), vehicle: saline sonified 107 % of control | endpoint: mean survival time, dose: 150.0 mg/kg/injection, schedule: Q04DX003 (ip), vehicle: saline sonified 114 % of control | endpoint: mean survival time, dose: 225.0 mg/kg/injection, schedule: Q04DX003 (ip), vehicle: saline sonified 108 % of control | [3] 122 % of control

CSC(=N/N=C/c1ccccc1O)SC
inactive: [6] 98 % of control | [7] 96 % of control | [8] 96 % of control

CC(=O)OCC1OC(n2ccc3c(N)ncnc32)C(O)C1OC(C)=O (stereo unspecified)
inactive: endpoint: mean survival time, dose: 5.0 mg/kg/injection, schedule: Q01DX001 (ip), vehicle: saline 112 % of control | endpoint: mean survival time, dose: 10.0 mg/kg/injection, schedule: Q01DX001 (ip), vehicle: saline 110 % of control | endpoint: mean survival time, dose: 20.0 mg/kg/injection, schedule: Q01DX001 (ip), vehicle: saline 108 % of control

CCOC(=O)CCC(NC(=O)c1ccc(N(C)S(=O)(=O)c2ccc(C)cc2)c(Cl)c1Cl)C(=O)OCC (stereo unspecified)
inactive: [6] 105 % of control | [7] 91 % of control | [8] 94 % of control

O/N=C(\c1ccccc1)C1C(/C(=N/O)c2ccccc2)C1c1ccccc1 (stereo unspecified)
inactive: endpoint: mean survival time, dose: 50.0 mg/kg/injection, schedule: Q04DX002 (ip), vehicle: saline with Tween-80 90 % of control | [9] 87 % of control

COc1cc(NCc2ccc3nc(N)nc(N)c3c2C)cc(OC)c1OC (tested in a mixture with another compound)
inactive: endpoint: median survival time, dose: 10.0 mg/kg/injection, schedule: Q01DX005 (ip), vehicle: water 115 % of control

CC/C(=N/O)C(N)=O
inactive: [6] 100 % of control | [7] 103 % of control | [8] 105 % of control

OCC1OC(O)C(O)C(O)C1O (stereo unspecified)
inactive: endpoint: mean survival time, dose: 100.0 mg/kg/injection, schedule: Q04DX003 (ip), vehicle: saline 103 % of control | endpoint: mean survival time, dose: 200.0 mg/kg/injection, schedule: Q04DX003 (ip), vehicle: saline 98 % of control | endpoint: mean survival time, dose: 400.0 mg/kg/injection, schedule: Q04DX003 (ip), vehicle: saline 98 % of control

Cc1ccc(C(=Nc2ccccc2)N=P(c2ccccc2)(c2ccccc2)c2ccccc2)cc1
inactive: endpoint: median survival time, dose: 12.5 mg/kg/injection, schedule: Q01DX005 (ip), vehicle: saline with Tween-80 102 % of control | endpoint: median survival time, dose: 25.0 mg/kg/injection, schedule: Q01DX005 (ip), vehicle: saline with Tween-80 105 % of control | endpoint: median survival time, dose: 50.0 mg/kg/injection, schedule: Q01DX005 (ip), vehicle: saline with Tween-80 105 % of control | endpoint: median survival time, dose: 100.0 mg/kg/injection, schedule: Q01DX005 (ip), vehicle: saline with Tween-80 91 % of control

COc1ccc(CC2C(=O)NC(C)C(=O)N(C)C3Cc4ccc(cc4)Oc4cc(ccc4O)CC(C(=O)NC(C)C(=O)NC(C)C(=O)N2C)N(C)C3=O)cc1 (stereo unspecified)
inactive: endpoint: mean survival time, dose: 1.0 mg/kg/injection, schedule: Q01DX009 (ip), vehicle: saline with Tween-80 112 % of control | endpoint: mean survival time, dose: 2.0 mg/kg/injection, schedule: Q01DX009 (ip), vehicle: saline with Tween-80 112 % of control | endpoint: mean survival time, dose: 4.0 mg/kg/injection, schedule: Q01DX009 (ip), vehicle: saline with Tween-80 116 % of control | endpoint: mean survival time, dose: 16.0 mg/kg/injection, schedule: Q01DX009 (ip), vehicle: saline with Tween-80 122 % of control | endpoint: median survival time, dose: 2.0 mg/kg/injection, schedule: Q01DX009 (ip), vehicle: saline with Tween-80 122 % of control | endpoint: median survival time, dose: 4.0 mg/kg/injection, schedule: Q01DX009 (ip), vehicle: saline with Tween-80 124 % of control | endpoint: median survival time, dose: 16.0 mg/kg/injection, schedule: Q01DX009 (ip), vehicle: saline with Tween-80 111 % of control

CC(=O)OC1CCC2(C)C(C1)C(=O)OC1C2CCC2(C)C(C(C)CCCC(C)C)CCC12 (stereo unspecified)
inactive: [6] 94 % of control | [7] 94 % of control | [8] 94 % of control

O=C1CC(=Nc2ccc([N+](=O)[O-])cc2)NN1c1c(Cl)cc(Cl)cc1Cl
inactive: [6] 101 % of control | [7] 97 % of control | [8] 97 % of control

CCCCCCCCOCCOCCOCCOCCOCCCCCCCC
inactive: [9] 102 % of control | endpoint: mean survival time, dose: 200.0 mg/kg/injection, schedule: Q04DX002 (ip), vehicle: saline with Tween-80 98 % of control | endpoint: mean survival time, dose: 400.0 mg/kg/injection, schedule: Q04DX002 (ip), vehicle: saline with Tween-80 102 % of control

C=C(C)[C@]12CC(C)C34OC(/C=C\C=C\CCCCCCCCC)(O[C@@H]1[C@@H]3[C@@H]1O[C@]1(CO)[C@@H](O)[C@]1(O)C(=O)C(C)=C[C@@H]41)O2 (stereo partly specified)
inactive: endpoint: mean survival time, dose: 0.01 mg/kg/injection, schedule: Q01DX009 (ip), vehicle: distilled water + alcohol 102 % of control | endpoint: mean survival time, dose: 0.02 mg/kg/injection, schedule: Q01DX009 (ip), vehicle: distilled water + alcohol 94 % of control | endpoint: mean survival time, dose: 0.04 mg/kg/injection, schedule: Q01DX009 (ip), vehicle: distilled water + alcohol 100 % of control | endpoint: mean survival time, dose: 0.09 mg/kg/injection, schedule: Q01DX009 (ip), vehicle: alcohol 95 % of control | endpoint: mean survival time, dose: 0.09 mg/kg/injection, schedule: Q01DX009 (ip), vehicle: distilled water + alcohol 96 % of control | endpoint: mean survival time, dose: 0.19 mg/kg/injection, schedule: Q01DX009 (ip), vehicle: alcohol 100 % of control | endpoint: mean survival time, dose: 0.38 mg/kg/injection, schedule: Q01DX009 (ip), vehicle: alcohol 101 % of control | endpoint: mean survival time, dose: 0.75 mg/kg/injection, schedule: Q01DX009 (ip), vehicle: alcohol 112 % of control | endpoint: mean survival time, dose: 1.5 mg/kg/injection, schedule: Q01DX009 (ip), vehicle: alcohol 117 % of control

CC(=O)Nc1ccccc1N
inactive: endpoint: mean survival time, dose: 50.0 mg/kg/injection, schedule: Q01DX009 (ip), vehicle: Klucel (hydroxypropylcellulose) (HPC) 100 % of control | endpoint: mean survival time, dose: 100.0 mg/kg/injection, schedule: Q01DX009 (ip), vehicle: Klucel (hydroxypropylcellulose) (HPC) 94 % of control | endpoint: mean survival time, dose: 200.0 mg/kg/injection, schedule: Q01DX009 (ip), vehicle: Klucel (hydroxypropylcellulose) (HPC) 103 % of control | endpoint: mean survival time, dose: 400.0 mg/kg/injection, schedule: Q01DX009 (ip), vehicle: Klucel (hydroxypropylcellulose) (HPC) 107 % of control

COc1ccc(C=Nc2ccc3c(c2)OCO3)cc1Br
inactive: [4] 98 % of control | [5] 97 % of control | [1] 103 % of control

O=C(C=C(C(F)(F)F)C(F)(F)F)c1cccc(S(=O)(=O)F)c1
inactive: endpoint: mean survival time, dose: 100.0 mg/kg/injection, schedule: Q01DX001 (ip), vehicle: saline with Tween-80 107 % of control

COc1ccc(OC)c2c1CCC(=O)C2
inactive: endpoint: mean survival time, dose: 12.5 mg/kg/injection, schedule: Q01DX009 (ip), vehicle: other 102 % of control | endpoint: mean survival time, dose: 25.0 mg/kg/injection, schedule: Q01DX009 (ip), vehicle: other 104 % of control | endpoint: mean survival time, dose: 50.0 mg/kg/injection, schedule: Q01DX009 (ip), vehicle: other 102 % of control | endpoint: mean survival time, dose: 100.0 mg/kg/injection, schedule: Q01DX009 (ip), vehicle: other 107 % of control | endpoint: mean survival time, dose: 200.0 mg/kg/injection, schedule: Q01DX009 (ip), vehicle: other 107 % of control
